Structures can show the parent of a compound that is named as a salt. Where two headings read alike, the source gives them in different places.
Test system: mice
Experiment: Neuropharmacological Assay (SmartCube): automated behavioral signature of compound-treated mice compared with a database of reference drug classes
Type: in vivo
Conditions: for minimal effective dose: Mus musculus, ip; for minimal effective dose / MED (minimal effective dose): i.p., that dose is shown
Description: Neurosci. 2011 Sep. 9; 5: 103 (doi: 10.3389/fnins.2011.00103) (“Roberds”). As reported in Roberds, because psychiatric diseases generally result from disorders of cell-cell communication or circuitry, intact systems are useful in detecting improvement in disease-relevant endpoints. These endpoints are typically behavioral in nature, often requiring human observation and interpretation. To facilitate testing of multiple compounds for behavioral effects relevant to psychiatric disease, PsychoGenics, Inc. (Tarrytown, NY, “PGI”) developed SmartCube™ an automated system in which behaviors of compound-treated mice are captured by digital video and analyzed with computer algorithms. (D. Brunner et al. Drug Discov. Today 2002, 7:S107-S112). PGI Analytical Systems uses data from SmartCube™ to compare the behavioral signature of a test compound to a database of behavioral signatures obtained using a large set of diverse reference compounds. (The composition of the database as well as validation of the method is further described in Roberds). In this way, the neuropharmacological effects of a test compound can be predicted by similarity to major classes of compounds, such as antipsychotics, anxiolytics and antidepressants.
The SmartCube™ system produces an activity signature indicating the probability that the activity of the test compound at the administered dose matches a given class of neuropharmacological agents. (See, e.g., Roberds, FIGS. 2 and 3). The test compound is simultaneously compared against multiple classes of agents; thus, a separate probability is generated for each behavioral effect measured (e.g., anxiolytic activity, analgesic activity, etc.). In table 2 below, these probabilities are reported for each behavioral effect measured as described in Table 1 below.
Provided compounds were dissolved in a mixture of Pharmasolve™ (N-methyl-2-pyrrolidone), polyethylene glycol and propylene glycol, and were injected i.p. 15 min. before the behavioral test. For each compound, injections were administered at 3 different doses. For each behavioral effect measured, results for the 3.0 mg/kg dose are presented. The potency of many of the compounds in the table was also determined in the SmartCube™ system. Test compounds were routinely examined at dose levels of 0.3, 1, 3 and 10 mg per kg (mpk), although the dose range was increased or decreased, if necessary, to obtain a full dose response curve. A compound's minimal effective dose (MED) is a measure of the compound's potency. The MED was defined as the dose (in mpk) having 45% or more total activity in SmartCube. If only one dose was tested, that dose is shown in the MED column of Table 2 even though the dose is not known to be the MED.

[1] = dose having 45% or more total activity in SmartCube, if only one dose was tested, read-out: MED (minimal effective dose)
[2] = probability that activity matches this class of agents, 3.0 mg/kg i.p., 15 min before test
[3] = SmartCube class probability, 3.0 mg/kg i.p., 15 min before test
[4] = SmartCube probability class, 3.0 mg/kg dose, i.p. 15 min before the behavioral test
[5] = dose having 45% or more total activity in SmartCube, if only one dose was tested, hydrochloride
[6] = probability that activity matches this class of agents, 3.0 mg/kg i.p., 15 min before test, hydrochloride, 3 mg/kg

CNC1CCc2cc(F)sc2C1 (racemic) [Compound 79, 2-fluoro-N-methyl-4,5,6,7-tetrahydrobenzothiophen-6-amine hydrochloride]
minimal effective dose [1]: 1 mg/kg
AD [2]: ++ (≥24%)
AG [2]: ND (^ <4%)
AN [2]: ND (^ <4%)
AP [2]: + (≥4%)
AX [2]: ++ (≥24%)
CE [2]: ND (^ <4%)
HL [2]: ND (^ <4%)
MS [2]: ND (^ <4%)
PS [2]: ND (^ <4%)
SH [2]: ND (^ <4%)
UK [2]: ND (^ <4%)

CNC1(C)CCc2cscc2C1 (racemic) [Compound 103, racemic N, 5-dimethyl-6,7-dihydro-4H-2-benzothiophen-5-amine hydrochloride]
minimal effective dose [1]: 1 mg/kg
AD [2]: ND (^ <4%)
AG [2]: ND (^ <4%)
AN [2]: ND (^ <4%)
AP [2]: ND (^ <4%)
AX [2]: ND (^ <4%)
CE [2]: ND (^ <4%)
HL [2]: ND (^ <4%)
MS [2]: ND (^ <4%)
PS [2]: ND (^ <4%)
SH [2]: ND (^ <4%)
UK [2]: +++ (≥49%)

CNC1(C)COc2c(C)csc2C1 (racemic) [Compound 238, N, 3,6-trimethyl-6,7-dihydro-5H-thieno[3,2-b]pyran-6-amine hydrochloride]
minimal effective dose (minimal effective dose: dose having 45% or more total activity in SmartCube, if only one dose tested, read-out: MED): > 3 mg/kg
AD [3]: ND (^ <4%)
AG [3]: ND (^ <4%)
AN [3]: ND (^ <4%)
AP [3]: ND (^ <4%)
AX [3]: ND (^ <4%)
CE [3]: ND (^ <4%)
HL [3]: ND (^ <4%)
MS [3]: ND (^ <4%)
PS [3]: ND (^ <4%)
SH [3]: ND (^ <4%)
UK [3]: ++ (≥24%)

CNC1COc2scc(C(F)(F)F)c2C1 (racemic) [Compound 288, N-methyl-5-(trifluoromethyl)-3,4-dihydro-2H-thieno[2,3-b]pyran-3-amine hydrochloride]
minimal effective dose (minimal effective dose: dose having 45% or more total activity in SmartCube, if only one dose was tested, read-out: MED): > 3 mg/kg
AD [4]: ND (^ <4%)
AG [4]: ND (^ <4%)
AN [4]: ND (^ <4%)
AP [4]: ND (^ <4%)
AX [4]: ND (^ <4%)
CE [4]: ND (^ <4%)
HL [4]: ND (^ <4%)
MS [4]: ND (^ <4%)
PS [4]: ND (^ <4%)
SH [4]: ND (^ <4%)
UK [4]: ND (^ <4%)

CNC1CCc2ccsc2C1.Cl (single isomer, unassigned) [Compound 9, N-methyl-4,5,6,7-tetrahydrobenzothiophen-6-amine hydrochloride]
MED (minimal effective dose) [5]: 0.1 mpk
AD [2]: ++ (≥24%)
AG [2]: ND (^ <4%)
AN [2]: ND (^ <4%)
AP [2]: ++ (≥24%)
MS [2]: ND (^ <4%)
UK [2]: ND (^ <4%)
AX [6]: + (≥4%)
CE [6]: + (≥4%)
HL [6]: + (≥4%)
PS [6]: + (≥4%)

CNC1CCc2ccsc2C1.Cl (single isomer, unassigned) [Compound 10, N-methyl-4,5,6,7-tetrahydrobenzothiophen-6-amine hydrochloride]
MED (minimal effective dose) [5]: 0.3 mpk
AD [2]: ++ (≥24%)
AG [2]: ND (^ <4%)
AN [2]: ND (^ <4%)
AP [2]: ++ (≥24%)
MS [2]: ND (^ <4%)
SH [2]: ND (^ <4%)
UK [2]: ND (^ <4%)
AX [6]: ND (^ <4%)
CE [6]: ND (^ <4%)
HL [6]: ND (^ <4%)
PS [6]: ND (^ <4%)

CNC1CCc2sccc2C1.Cl (single isomer, unassigned) [Compound 11, N-methyl-4,5,6,7-tetrahydrobenzothiophen-5-amine hydrochloride]
MED (minimal effective dose) [5]: 0.3 mpk
AG [2]: ND (^ <4%)
AN [2]: ND (^ <4%)
CE [2]: ND (^ <4%)
HL [2]: ND (^ <4%)
MS [2]: ND (^ <4%)
PS [2]: ND (^ <4%)
SH [2]: ND (^ <4%)
UK [2]: ND (^ <4%)
AD [6]: ND (^ <4%)
AP [6]: ++++ (≥74%)
AX [6]: ND (^ <4%)

CNC1CCc2sccc2C1.Cl (single isomer, unassigned) [Compound 12, N-methyl-4,5,6,7-tetrahydrobenzothiophen-5-amine hydrochloride]
MED (minimal effective dose) [5]: 1.0 mpk
AG [2]: ND (^ <4%)
AN [2]: ND (^ <4%)
CE [2]: ND (^ <4%)
HL [2]: ND (^ <4%)
MS [2]: ND (^ <4%)
PS [2]: ND (^ <4%)
SH [2]: ND (^ <4%)
UK [2]: ND (^ <4%)
AD [6]: ++ (≥24%)
AP [6]: + (≥4%)
AX [6]: ++ (≥24%)

CNC1CCc2cscc2C1.Cl (single isomer, unassigned) [Compound 13, N-methyl-4,5,6,7-tetrahydro-2-benzothiophen-5-amine hydrochloride]
minimal effective dose [1]: 0.3 mg/kg
AG [2]: ND (^ <4%)
AN [2]: ND (^ <4%)
AX [2]: + (≥4%)
HL [2]: ND (^ <4%)
MS [2]: ND (^ <4%)
PS [2]: ND (^ <4%)
SH [2]: ND (^ <4%)
UK [2]: ND (^ <4%)
AD [6]: ND (^ <4%)
AP [6]: +++ (≥49%)
CE [6]: + (≥4%)

CNC1CCc2cscc2C1.Cl (single isomer, unassigned) [Compound 14, N-methyl-4,5,6,7-tetrahydro-2-benzothiophen-5-amine hydrochloride]
MED (minimal effective dose) (dose having 45% or more total activity in SmartCube, if only one dose was tested): 0.3 mpk
AG [2]: ND (^ <4%)
AN [2]: ND (^ <4%)
AX [2]: + (≥4%)
HL [2]: ND (^ <4%)
MS [2]: ND (^ <4%)
PS [2]: ND (^ <4%)
SH [2]: ND (^ <4%)
UK [2]: ND (^ <4%)
AD [6]: ++ (≥24%)
AP [6]: + (≥4%)
CE [6]: ND (^ <4%)

CN(C)C1CCc2ccsc2C1.Cl (single isomer, unassigned) [Compound 15, N,N-dimethyl-4,5,6,7-tetrahydrobenzothiophen-6-amine hydrochloride]
MED (minimal effective dose) [5]: 0.3 mpk
AD [2]: ND (^ <4%)
AG [2]: ND (^ <4%)
AN [2]: ND (^ <4%)
HL [2]: ND (^ <4%)
MS [2]: ND (^ <4%)
PS [2]: ND (^ <4%)
SH [2]: ND (^ <4%)
UK [2]: ND (^ <4%)
AP [6]: + (≥4%)
AX [6]: +++ (≥49%)
CE [6]: ++ (≥24%)

CN(C)C1CCc2ccsc2C1.Cl (single isomer, unassigned) [Compound 16, N,N-dimethyl-4,5,6,7-tetrahydrobenzothiophen-6-amine hydrochloride]
MED (minimal effective dose) [5]: 1.0 mpk
AD [2]: ND (^ <4%)
AG [2]: ND (^ <4%)
AN [2]: ND (^ <4%)
HL [2]: ND (^ <4%)
MS [2]: ND (^ <4%)
PS [2]: ND (^ <4%)
SH [2]: ND (^ <4%)
UK [2]: ND (^ <4%)
AP [6]: ND (^ <4%)
AX [6]: ++++ (≥74%)
CE [6]: ND (^ <4%)
